# From publication PMC10987501, “The antihyperglycemic potential of pyrazolobenzothiazine 1, 1-dioxide novel derivative in mice using integrated molecular pharmacological approach” (Scientific Reports, 2024)
# “Also recorded” adds a separate entry of the source.
# What was measured:
# [1] = test system: α-glucosidase; test: α-glucosidase inhibition assay (PNPG substrate); format: biochemical; settings: for α-glucosidase % inhibition: 10 μL (500 µM) sample
# Method: To carry out this reaction, 10 μL (500 µM) of 10 mM sample solution (prepared in DMSO) was added to ELISA 96 microwell plate. Then, 40 μL of 0.5U/ml α glucosidase was mixed by adding 120 μL of 0.1M phosphate buffer with a pH value of 7.4. The solution was incubated at 37 °C for 5 min. The reaction proceeded further by adding 40 μL of 5 mM substrate solution (PNPG) and incubation was done for half an hour at 37 °C. After performing the incubation microplate reader was used to read the absorbance of the reaction mixture at 405 nm wavelength. […] The inhibition percentage of the sample and positive control were calculated using the following formula. Inhibition%=B-S/B∗100
# (§1) At this point, the B and S denote absorbance for the blank and samples. Blank contains only DMSO instead of sample.
# [2] = test system: α-amylase; test: α-amylase inhibition assay (starch substrate, DNSA); format: biochemical
# Method: ELISA plate was used for inhibition assay and it was loaded with 40 µL of the sample. Enzyme prepared in 0.02 M sodium phosphate buffer with pH 6.9 (40 µL) was further added to wells. The solution in wells was kept on incubation at 37 °C for 10 min. Moreover, 40 µL starch solution prepared in 1% DMSO was added to the solution and put on incubation for 10 min at 25 °C. At last, to stop the reaction, 100 µL of DNSA reagent was added to the solution. The mixture was put in a boiling water bath for 5 min and cooled down at room temperature after incubation. For dilution of the reaction mixture, 400 µL of distilled water was added to the solution, and the absorbance of the reaction mixture was measured at 540 nm wavelength. To calculate the percentage inhibition the following formula was used. Inhibition%=B-S/B∗100
# as §1
# [3] = test system: α-glucosidase; test: Kinetics study (α-glucosidase), Lineweaver–Burk plot; format: biochemical
# Method: (p-nitrophenyl-α-D-glucoside) was used for reaction. In addition, varying concentrations (0.1 mM, 0.25 mM, 0.5 mM, 0.75 mM, 1 mM) sample/inhibitor [V] was used. The type of inhibition was determined by the Lineweaver–Burk plot, while the Michaelis Menten equation was used to find the value of the inhibition constant. Vo=VmaxS/Km+S 1/Vo=Km+S/VmaxS=km/Vmax1/S+1/Vmax
# (§2) The initial rate of reaction is indicated by V0, Michaelis Menten's constant signifies km, Km/Vmax represents to slope, and 1/Vmax denotes the y-intercept. The value of the inhibitory constant was calculated by plotting the secondary graph. Straight-line produced by slope versus [V] intersecting x-axis indicates ki value while ki′ was produced by intersecting line plotted between y-intercept and [V].
# [4] = test system: BALB/c mice; test: Biochemical investigation of blood in alloxan-induced diabetic mice; format: in vivo; set-up: Serum insulin level: unit not given here; settings: for Serum creatinine / Cholesterol in blood / HbA1c, % of glycated haemoglobin: treated group; for Serum creatinine: diabetic control 1.9 mg/dL; for Cholesterol in blood: diabetic control 120 mg/dL; for HbA1c, % of glycated haemoglobin: diabetic control 9%; for Serum insulin level: normal mice about 15 µM/L
# Method: (§3) All experimental protocols adhered to the guidelines outlined in the NIH Guide for Care and Use of Laboratory Animals and the ARRIVE guidelines for animal experimentation. The Animal Care and Use Committee (ACUC) of Government College University Faisalabad (GCUF-2021-09) provided approval for the study. For in vivo study, BALB/c mice (weight 26–33 g) were acquired from the Department of Pharmacy and kept in the optimized environment (12 h dark, 12 h light) with a regular pellet diet and normal tab water. Diabetes induction in mice was done through a standard protocol reported by[21] with slight amendments. Alloxan monohydrate 150 mg/kg (following the body weight of mice) was liquified in normal saline and injected intraperitoneally in mice fasted for 16 h[22],[23]. Furthermore, screening of mice was done based on their blood glucose levels and mice with blood glucose levels more than 1.26 g/L were considered diabetic, and therefore taken for further experiment/examination. The mice diagnosed with diabetes were classified into five groups and five mice in each group. […] Two doses were selected because they indicate how the organism's response changes at different levels of exposure. This information is crucial for determining safe dosage levels for humans or animals.
# For biochemical testing and histological examination, mice from each group were collected, and data were produced for different testing parameters, including fasting blood glucose, serum creatinine, serum insulin, HbA1c, triglyceride and cholesterol. A Countour TS glucometer was used to measure mice's fasting blood glucose levels. While Clinical Chemistry Reagents SRL (CCR) kit was used to measure serum creatinine and triglyceride levels. Moreover, the VITRO SCIENT kit was utilized to measure the serum insulin, cholesterol and HbA1c levels. For histological analysis, mice were sacrificed and their organs (liver, kidney and pancreas) were washed with cold saline and preserved in a 10% formalin solution. A compound microscope from the Department of Physiology, Government College University Faisalabad, was used for tissue investigation under a controlled and organized environment. Pictures of tissue samples were taken through OPTIKA software.
# [5] = test system: α-amylase; test: Kinetics study (α-amylase), Lineweaver–Burk plot; format: biochemical
# Method: Varying concentrations (0.25%, 0.5%, 1%, 1.5%, 2%) of substrate [S] (starch) were used with constant enzyme concentration. Same as substrate, varying concentration (1 mM, 3 mM, 5 mM, 7 mM, 9 mM) of the inhibitor [V] was used. Lineweaver–Burk plots were used to determine the type of enzyme inhibition and the Michaelis Menten equation was used to find the value of inhibition constant. Vo=VmaxS/Km+S 1/Vo=Km+S/VmaxS=km/Vmax1/S+1/Vmax
# as §2, with “initial reaction” for “initial”, “rate” for “rate of reaction”, “represents” for “represents to”
# [6] = test system: BALB/c mice; test: Histology of liver, kidney and pancreas and side effects in alloxan-induced diabetic mice; format: in vivo
# Method: as §3, with “animals. […]” for “animals.”
compound,measurement,setting,value
"C[C@H]1O[C@H](O[C@H]2[C@H](O)[C@@H](O)[C@@H](O[C@H]3[C@H](O)[C@@H](O)C(O)O[C@@H]3CO)O[C@@H]2CO)[C@H](O)[C@@H](O)[C@@H]1N[C@H]1C=C(CO)[C@@H](O)[C@H](O)[C@H]1O (some centres unmarked) [Acarbose, reference compound]",α-glucosidase % inhibition,[1],37 ± 0.026%
same,α-amylase % inhibition,[2],33 ± 0.042%
same,"Type of inhibition, α-glucosidase",[3],competitive inhibition
same,Serum creatinine,[4],0.8 mg/dL
same,Cholesterol in blood,[4],100 mg/dL
same,"HbA1c, % of glycated haemoglobin",[4],5%
"C/C(=N\NC(=O)C1=C(O)c2ccccc2S(=O)(=O)N1)c1ccccc1 [Compound S1, (E)-4-Hydroxy-N′-(1-phenylethylamine)-2H-benzo[e][1,2]thiazine-3-carbohydrazide1,1-dioxide]",IC50,[1],3.91 µM
same,α-glucosidase % inhibition,[1]; 500 µM,55 ± 0.047%
same,IC50,[2],8.89 µM
same,α-amylase % inhibition,[2],46 ± 0.091%
same,"Type of inhibition, α-glucosidase",[3],competitive type of inhibition; also recorded: competitively
same,"Type of inhibition, α-amylase",[5],competitive type of inhibition; also recorded: competitively
same,Serum insulin level,[4]; double dose (7.8 mg/kg),30
same,Fasting blood sugar level,"[4]; single and double doses (3.9 and 7.8 mg/kg), diabetic control > 300 mg/dL",110 mg/dL
same,Serum insulin level,[4]; single dose (3.9 mg/kg),25
same,Serum creatinine,[4],0.6 mg/dL
same,Cholesterol in blood,[4],85 mg/dL
same,"HbA1c, % of glycated haemoglobin",[4],3%
same,Side effects in the mice model,[6]; after administration to mice,no significant side effect
same,"Histology: necrosis / toxicity in liver, kidney and pancreas",[6]; diabetic mice dissected after 21 days of treatment,"low necrosis rate; also recorded: less toxic in the kidney, liver, and pancreas; also recorded: no toxicity within the liver and pancreatic tissues; also recorded: minimum rate of necrosis and toxicity"
